Laboratory results: the supplement of paper PMC8960247
Counter-ions that a name gives are not always drawn. ± gives the standard error.

Key:
621-102 (TSC2-deficient) = assay: relative viability vs DMSO; higher = less cytotoxic; conditions: serum: 10% FBS, 72 h
621-103 (TSC2-rescued) = assay: as above; conditions: serum: 10% FBS, 72 h
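Further: immortalized renal angiomyolipoma cells stably carrying empty vector or TSC2, dosed in 384-well plates in DMEM, viability normalized to vehicle-treated wells within each plate.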

| SMILES | relative viability (621-102 (TSC2-deficient); 0.0001 µM) | relative viability (621-102 (TSC2-deficient); 0.001 µM) | relative viability (621-102 (TSC2-deficient); 0.01 µM) | relative viability (621-102 (TSC2-deficient); 0.1 µM) | relative viability (621-102 (TSC2-deficient); 1 µM) | relative viability (621-102 (TSC2-deficient); 10 µM) | relative viability (621-103 (TSC2-rescued); 0.0001 µM) | relative viability (621-103 (TSC2-rescued); 0.001 µM) | relative viability (621-103 (TSC2-rescued); 0.01 µM) | relative viability (621-103 (TSC2-rescued); 0.1 µM) | relative viability (621-103 (TSC2-rescued); 1 µM) | relative viability (621-103 (TSC2-rescued); 10 µM) |
| --- | --- | --- | --- | --- | --- | --- | --- | --- | --- | --- | --- | --- |
| COC(=O)Nc1nc2cc(Sc3ccccc3)ccc2[nH]1 [Fenbendazole (Panacur)] | 114 ± 2% | 109.5 ± 0.17% | 98.4 ± 4.1% | 91.8 ± 1.4% | 38.2 ± 1.4% | 39.5 ± 0.88% | 108 ± 3.3% | 102 ± 3.8% | 110.5 ± 0.51% | 102 ± 2.8% | 44.28 ± 0.059% | 40.924 ± 0.025% |
| Cc1ncc(-c2ccnc(Nc3ccc(S(C)(=O)=O)cc3)n2)n1C(C)C [AZD5438] | 103 ± 7.6% | 101 ± 1.4% | 95.4 ± 1.6% | 99.55 ± 0.14% | 88.1 ± 1.8% | 11.69 ± 0.054% | 110.9 ± 0.22% | 105.8 ± 0.22% | 98.7 ± 4.7% | 108 ± 1.6% | 89.4 ± 2.3% | 27.7 ± 0.92% |
| COc1ccnc2[nH]cc(C(=O)C(=O)N3CCN(C(=O)c4ccccc4)C[C@H]3C)c12 | 105 ± 6.5% | 106 ± 3.8% | 111 ± 2.5% | 107 ± 2.7% | 86 ± 1.2% | 88.5 ± 5.7% | 112 ± 3.3% | 112 ± 1.2% | 108 ± 1.6% | 103 ± 1.8% | 106 ± 1.2% | 115 ± 1.5% |
| Nc1cc(C(F)(F)F)c(-c2cc(N3CCOCC3)nc(N3CCOCC3)n2)cn1 [BKM120 (NVP-BKM120)] | 97 ± 2% | 102 ± 3.6% | 95.9 ± 2.2% | 92.9 ± 2.6% | 71.9 ± 3.6% | 20.01 ± 0.19% | 102 ± 2.4% | 112 ± 2.3% | 109.19 ± 0.024% | 104 ± 5% | 58.5 ± 2.1% | 21 ± 0.97% |
| Cn1cc(C2=C(c3ccc(Cl)cc3Cl)C(=O)NC2=O)c2ccccc21 | 107.48 ± 0.025% | 103 ± 2.8% | 98.2 ± 1.1% | 90.4 ± 5.3% | 96.83 ± 0.6% | 97.5 ± 1.9% | 77.6 ± 1.8% | 84.2 ± 1.4% | 89.8 ± 2.4% | 92.5 ± 5.7% | 80.2 ± 1.9% | 76.2 ± 6.7% |
| CCCCC1=NC2(CCCC2)C(=O)N1Cc1ccc(-c2ccccc2-c2nnn[nH]2)cc1 [Irbesartan (Avapro)] | 103.3 ± 0.78% | 100.8 ± 0.93% | 105 ± 3.8% | 101 ± 4.9% | 110 ± 1.1% | 104 ± 2.6% | 102 ± 1.3% | 96.3 ± 4.2% | 95.6 ± 3.6% | 102 ± 1.9% | 103 ± 4% | 107.2 ± 0.91% |
| C[C@@H]1CN(CC(=O)Nc2ccc3c(c2)Cc2cccc(-c4cc(=O)cc(N5CCOCC5)o4)c2S3)C[C@H](C)O1 | 101 ± 1.9% | 96.34 ± 0.66% | 96.06 ± 0.86% | 97.1 ± 2.1% | 97.3 ± 1.5% | 65.9 ± 0.85% | 79.7 ± 1.1% | 86 ± 3.5% | 83 ± 0.38% | 84.6 ± 1% | 77.8 ± 3.1% | 59.4 ± 5.5% |
| Clc1cccc(Cl)c1NC1=NCCN1 [Clonidine HCl (Catapres)] | 111 ± 5% | 110 ± 5.9% | 101 ± 1.1% | 104 ± 3.7% | 102.3 ± 0.16% | 104 ± 1.4% | 96.4 ± 1.4% | 92.5 ± 0.96% | 93.1 ± 9.7% | 110 ± 0.19% | 113 ± 5.1% | 108 ± 1.1% |
| CC(C)(C)Cn1c(N)nc2ccc(-c3[nH]c(C(C)(C)C)nc3-c3ccc(F)cc3)nc21 | 100 ± 4.4% | 99.6 ± 4.4% | 100 ± 2.6% | 107 ± 4.4% | 99.1 ± 3.6% | 95.24 ± 0.28% | 94.2 ± 2.7% | 98.1 ± 2.3% | 97.1 ± 3.8% | 95.4 ± 1.8% | 93.7 ± 0.94% | 78.75 ± 0.41% |
| CC[N+](CC)(CC)CCOc1cccc(OCC[N+](CC)(CC)CC)c1OCC[N+](CC)(CC)CC [Gallamine triethiodide (Flaxedil)] | 105 ± 2.9% | 109.1 ± 0.49% | 103 ± 3.5% | 102.6 ± 0.87% | 103.6 ± 0.17% | 89 ± 2% | 99.9 ± 4.2% | 87.2 ± 3% | 103 ± 1.7% | 92.4 ± 3.8% | 87.3 ± 1.9% | 99.6 ± 4.1% |
| CC(=O)NC[C@H]1CN(c2ccc(N3CCOCC3)c(F)c2)C(=O)O1 [Linezolid] | 99.5 ± 7.5% | 108 ± 2.5% | 102.8 ± 0.25% | 105 ± 2.2% | 102 ± 4.4% | 101.1 ± 0.19% | 105 ± 5.3% | 110 ± 4.4% | 98.2 ± 2.4% | 101 ± 0.73% | 103 ± 1.3% | 104 ± 3% |
| CCNC(=O)c1noc(-c2cc(C(C)C)c(O)cc2O)c1-c1ccc(CN2CCOCC2)cc1 [NVP-AUY922] | 35.4 ± 3.1% | 33 ± 1.4% | 22.2 ± 0.39% | 20.32 ± 0.026% | 23 ± 0.25% | 21.6 ± 1.3% | 17.5 ± 0.57% | 6.795 ± 0.067% | 6.22 ± 0.57% | 5.21 ± 0.31% | 4.92 ± 0.055% | 6.99 ± 0.21% |
| COc1c(C)cnc(Cn2cnc3c(Cl)nc(N)nc32)c1C [BIIB021] | 107 ± 1.3% | 120 ± 2.2% | 117 ± 4.1% | 79 ± 2.7% | 33.3 ± 1.2% | 21.1 ± 0.83% | 108.8 ± 0.79% | 103 ± 1.5% | 104.1 ± 0.83% | 75 ± 2.9% | 5.92 ± 0.87% | 4.56 ± 0.052% |
| COc1cccc(-c2cc(=O)c3ccccc3o2)c1N | 109 ± 2.8% | 103 ± 3% | 104.2 ± 0.83% | 104 ± 6% | 107.8 ± 0.69% | 109 ± 2.6% | 100 ± 2.6% | 99.7 ± 1.8% | 103 ± 1.9% | 99.8 ± 1.2% | 98.6 ± 2.6% | 97.6 ± 3.2% |
| Cc1ccc(NC(=O)c2ccc(CN3CCN(C)CC3)cc2)cc1Nc1nccc(-c2cccnc2)n1 [Imatinib Mesylate] | 99 ± 2.9% | 113 ± 3.7% | 108 ± 3.2% | 111 ± 3.6% | 107 ± 3.1% | 94.78 ± 0.7% | 95.2 ± 5.4% | 90.4 ± 3.4% | 101.6 ± 0.44% | 97.9 ± 1.8% | 98.3 ± 4.3% | 94.8 ± 4.8% |
| CC[C@@]1(O)C(=O)OCc2c1cc1n(c2=O)Cc2cc3ccccc3nc2-1 [Camptothecine] | 104.3 ± 0.41% | 106 ± 1.9% | 101 ± 2.4% | 57.8 ± 2.9% | 12 ± 0.68% | 19.5 ± 1.7% | 100.6 ± 0.37% | 100.7 ± 0.47% | 96.3 ± 4.5% | 44.6 ± 2.1% | 10.3 ± 0.36% | 17.79 ± 0.099% |
| CN1CC(=O)N2[C@H](c3ccc4c(c3)OCO4)c3[nH]c4ccccc4c3C[C@@H]2C1=O [Tadalafil (Cialis)] | 107.45 ± 0.0089% | 97.8 ± 3.3% | 107 ± 4.8% | 101 ± 2% | 94.3 ± 2.4% | 107.7 ± 0.44% | 91.2 ± 1.9% | 92.87 ± 0.31% | 102.7 ± 0.92% | 92.11 ± 0.35% | 96.51 ± 0.38% | 101 ± 2% |
| O=c1cc(-c2cccc3c2Sc2ccccc2S3)oc(N2CCOCC2)c1 | 101 ± 3% | 99.73 ± 0.79% | 98.3 ± 3.2% | 94.4 ± 1.1% | 100 ± 2.1% | 80.3 ± 0.73% | 78.3 ± 1.3% | 90.23 ± 0.51% | 85 ± 3.9% | 82.9 ± 0.99% | 77.06 ± 0.31% | 69.3 ± 3.3% |
| N#C/C(=C\c1ccc(O)c(O)c1)C(=O)NCc1ccccc1 [AG-490] | 99.7 ± 2.8% | 98.6 ± 3.6% | 92.6 ± 2.9% | 104 ± 2.4% | 99.2 ± 6.6% | 81 ± 1.6% | 109 ± 1.2% | 109 ± 3.9% | 108 ± 2% | 114 ± 1.2% | 107 ± 1% | 83.8 ± 3.9% |
